Experimental data taken from patent US20100168228A1, “NOVEL CHEMOTHERAPEUTIC AGENTS AGAINST INFLAMMATION AND CANCER” (RELIANCE LIFE SCIENCES PVT. LTD., priority 2006, published 2010).

Experiments:
RAW 264.7 cells = test: Nitrite quantification (Griess) in LPS stimulated macrophages; format: cell-based, mouse; conditions: RAW 264.7 + LPS (200 ng/ml) + 10 μM compound, 24 h; LPS + DMSO control 14.560, basal 0.782
Protocol: NO2^− accumulation was used as an indicator of Nitric Oxide (NO) production in the medium as described previously (Green et al., 1982 Anal Biochem 126, 131-138). […] The isolated supernatants were mixed with an equal volume of Griess reagent (1% sulfanilamide, 0.1% naphthylenediamine dihydrochloride, and 2% phosphoric acid) and incubated at room temperature for 15 min. NaNO2 was used to generate a standard curve, and nitrite production was determined by measuring the optical density at 540 nm.
To estimate the anti-inflammatory effects of all the synthetic molecules listed in this study, we measured the accumulation of nitrite, the stable metabolite of NO, in the culture media using Griess reagent.
To investigate the effect of CAMVE on NO production, we measured the accumulation of nitrite, the stable metabolite of NO, in the culture media using Griess reagent. To investigate the effect of CAMVE on NO production, Raw 264.7 cells, pretreated with indicated concentrations of CAMVE for 1 h were incubated with LPS (250 ng/ml) for 24 h.

TNFα = test: Bioassay of TNFα production by LPS activated RAW 264.7 macrophages using L929 cell line; format: cell-based; conditions: Mus musculus; L929 + ActD + supernatant from LPS + compound (10 μM) treated RAW 264.7 macrophage; crystal violet; mean ± S.D. of triplicate; read-out: PERCENTAGE CELL SURVIVAL ± S.D.
Protocol: Measurement of TNFα in culture medium or supernatant is performed using immunoassay and bioassay. Bioassay was used for the measurement of bioactive TNFα production in the culture medium.
TNFα secretion into the medium by LPS activated macrophage was assayed using L929 tumorigenic murine cells (ATCC) specifically sensitive to TNFα. L929 cell cytotoxicity assay was performed by a modified method (Sano et al., The Journal of Immunology, 1999, 163: 387-395 The Journal of Immunology, 1999, 163: 387-395) based on that described elsewhere (Flick D A, Gifford G E. J Immunol Methods. 1984 Mar. 30; 68(1-2): 167-175). Briefly, the L929 cells (log phase cells) were seeded into a flat bottom 96 well plates (6×10^4/well) in 100 μl volume of RPMI 1640 containing 2% FCS and incubated overnight at 37° C. in a 5% CO2 incubator. A working dilution of the culture supernatant collected from LPS (200 ng/ml) activated macrophage in a volume of 100 μl per well was first tested to obtain 70-75% cytotoxicity equivalent to […] of recombinant TNFα standard to the TNFα sensitive L929 cell line. After incubation of the L929 cells appropriate fixed dilution of the culture supernatant collected from the compound treated (10 μM) wells, containing the LPS stimulated macrophages in a volume of 100 μl with 2 μg/ml Actinomycin D (Act D) was taken and added to the L929 cells and the cells were incubated at room temperature for 15 min followed by 18 h incubation at 37° C. overnight with 5% CO2. On the next day the medium was removed and the cells were stained with 0.2% (w/v) crystal violet for 10 minutes. The wells were gently rinsed with water, and 33% acetic acid (100 μl/well) was added to extract the retained crystal violet. The absorbance at 570 nm was finally measured.
Tumor necrosis factor-α can cause direct cytotoxicity to the lung fibroblast cell line (L929). Bioassay of TNF α is designated on the basis of this cytotoxicity of TNF α, which can be used for the identification of murine TNF α activity in tissue culture supernatants. Culture supernatant collected from the synthetic molecules treated well containing LPS stimulated macrophage modulated the extent of cytotoxicity to the L929 cells (see Table 1).

SMILES	CONCENTRATION OF NITRITE μM ± SD (RAW 264.7 cells) [µM]	viability at 10 µM (TNFα) [%]
C/C=C/c1cc(OC)c2c(c1)[C@@H](C)[C@H](c1ccc(OC(=O)/C=C/c3ccc(O)c(O)c3)c(OC)c1)O2 (racemic) [compound 5, (±)-2β-[4-O-(3,4,-dihydroxycinnamoyl)-3-methoxyphenyl]-3α-methyl-7-methoxy-5-[(E)-1-propenyl]-2,3 dihydrobenzofuran]	3.449 ± 0.315	67.8 ± 0.866
C/C=C/c1cc(OC)c2c(c1)[C@@H](C)[C@H](c1ccc(OC(=O)c3ccc(O)c(OC)c3)c(OC)c1)O2 (racemic) [compound 16, (±)-2β-[4-O-(3-methoxy-4-hydroxybenzoyl)-3-methoxyphenyl]-3α-methyl-7-methoxy-5-[(E)-1-propenyl]-2,3-dihydrobenzofuran]	8.449 ± 0.234	49 ± 1.99
C/C=C/c1cc(OC)c2c(c1)[C@@H](C)[C@H](c1ccc(OC(=O)/C=C/c3ccc(O)c(OC)c3)c(OC)c1)O2 (racemic) [compound 25, (±)-2β-[4-O-(3-methoxy-4-hydroxycinnamoyl)-3-methoxyphenyl]-3α-methyl-7-methoxy-5-[(E)-1-propenyl]-2,3-dihydrobenzofuran]	7.871 ± 0.168	53.7 ± 2.05
C/C=C/c1cc(OC)c2c(c1)[C@@H](C)[C@H](c1ccc(OC(=O)/C=C/c3ccc(O)cc3)c(OC)c1)O2 (racemic) [compound 29, (±)-2β-[4-O-(4-hydroxycinnamoyl)-3-methoxyphenyl]-3α-methyl-7-methoxy-5-[(E)-1-propenyl]-2,3-dihydrobenzofuran]	8.382 ± 0.454	50.6 ± 1.49
COC(=O)/C=C/c1ccc(OC(=O)/C=C/c2ccc(O)c(O)c2)c(OC)c1 [compound 2, 2-methoxy-4-[(1E)-3-methoxy-3-oxoprop-1-en-1-yl]phenyl (2E)-3-(3,4 dihydroxyphenyl)acrylate]	2.404 ± 0.168	68
COC(=O)c1ccccc1OC(=O)/C=C/c1ccc(O)c(O)c1 [compound 3, Methyl 2-{[(2E)-3-(3,4-dihydroxyphenyl)prop-2-enoyl]oxy}benzoate]	3.022 ± 0.300	67 ± 2.3
C=CCc1ccc(OC(=O)/C=C/c2ccc(O)c(O)c2)c(OC)c1 [compound 4, 4-allyl-2-methoxyphenyl (2E)-3-(3,4-dihydroxyphenyl)acrylate]	3.093 ± 0.437	69.1 ± 1.49
COC(=O)/C=C/c1cc(OC)c2c(c1)[C@@H](C(=O)OC)[C@H](c1ccc(OC(=O)/C=C/c3ccc(O)c(O)c3)c(OC)c1)O2 [compound 6, Methyl (E)-3-[2β-{4-O-(3,4-dihydroxycinnamoyl)-3-methoxyphenyl}-7-methoxy-3α-methoxycarbonyl-2,3-dihydro-1-benzofuran-5-yl]prop-2-enoate]	3.204 ± 0.168	66.6 ± 1.49
C/C=C/c1ccc(OC(=O)/C=C/c2ccc(O)c(O)c2)c(OC)c1 [compound 7, 2-methoxy-4-[(1E)-prop-1-en-1-yl]phenyl(2E)-3-(3,4-dihydroxyphenyl)acrylate]	3.760 ± 0.546	65.3 ± 1.11
COc1cc(C=O)ccc1OC(=O)/C=C/c1ccc(O)c(O)c1 [compound 8, 4-formyl-2-methoxyphenyl (2E)-3-(3,4-dihydroxyphenyl)acrylate]	3.893 ± 0.133	67.8 ± 1.25
COC(=O)c1ccccc1OC(=O)c1ccc(O)c(OC)c1 [compound 9, 2-(Methoxycarbonyl)phenyl 4-hydroxy-3-methoxybenzoate]	7.582 ± 0.868	51.1 ± 2.77
COC(=O)c1ccc(OC(=O)c2ccc(O)c(OC)c2)c(OC)c1 [compound 10, 2-methoxy-4-(methoxycarbonyl)phenyl 4-hydroxy-3-methoxy benzoate]	6.849 ± 0.806	51.6 ± 1.4
COC(=O)/C=C/c1ccc(OC(=O)c2ccc(O)c(OC)c2)c(OC)c1 [compound 11, 2-methoxy-4-[(1E)-3-methoxy-3-oxoprop-1-en-1yl]phenyl 4-hydroxy-3-methoxybenzoate]	5.604 ± 0.668	52.4 ± 1.51
COC(=O)/C=C/c1cc(OC)c2c(c1)[C@@H](C(=O)OC)[C@H](c1ccc(OC(=O)c3ccc(O)c(OC)c3)c(OC)c1)O2 [compound 12, Methyl(E)-3-[2β-{4-O-(3-methoxy-4-hydroxyphenylcarbonyl)-3-methoxyphenyl}-7-methoxy-3α-methoxycarbonyl-2,3-dihydro-1-benzofuran-5-yl]prop-2-enoate]	9.582 ± 0.482	51.3 ± 1.21
C=CCc1ccc(OC(=O)c2ccc(O)c(OC)c2)c(OC)c1 [compound 13, 4-allyl-2-methoxyphenyl 4-hydroxy-3-methoxybenzoate]	8.004 ± 0.379	50.6 ± 1.6
C/C=C/c1ccc(OC(=O)c2ccc(O)c(OC)c2)c(OC)c1 [compound 14, 2-Methoxy-4-[(1E)-prop-1en-1-yl]phenyl4-hydroxy-3-methoxy benzoate]	8.382 ± 0.278	51 ± 1.91
COc1cc(C(=O)Oc2ccc(C=O)cc2OC)ccc1O [compound 15, 4-formyl-2-methoxyphenyl 4-hydroxy-3-methoxybenozoate]	8.271 ± 0.342	50.9 ± 1.84
COC(=O)c1ccc(OC(=O)/C=C/c2ccc(O)cc2)c(OC)c1 [compound 17, methyl 4-{[(2E)-3-(4-hydroxyphenyl)prop-2-enoyl]oxy}-3-methoxy benzoate]	8.404 ± 0.315	51.9 ± 1.43
COC(=O)/C=C/c1ccc(OC(=O)/C=C/c2ccc(O)cc2)c(OC)c1 [compound 18, 2-methoxy-4-[(1E)-3-methoxy-3-oxoprop-1-en-1-yl]phenyl (2E)-3-(4-hydroxyphenyl)acrylate]	7.960 ± 0.437	50.4 ± 1.57
COc1cc(C=O)ccc1OC(=O)/C=C/c1ccc(O)cc1 [compound 19, 4-formyl-2-methoxyphenyl (2E)-3-(4-hydroxyphenyl)acrylate]	8.227 ± 0.115	51.6 ± 1.57
COC(=O)c1ccccc1OC(=O)/C=C/c1ccc(O)cc1 [compound 20, methyl 2-{[(2E)-3-(4-hydroxyphenyl)prop-2-enoyl]oxy}benzoate]	8.493 ± 0.267	51.9
C=CCc1ccc(OC(=O)/C=C/c2ccc(O)cc2)c(OC)c1 [compound 21, 4-allyl-2-methoxyphenyl (2E)-3-(4-hydroxyophenyl)acrylate]	8.293 ± 0.371	52.3 ± 1.25
COC(=O)/C=C/c1ccc(OC(=O)/C=C/c2ccc(O)cc2)c(OC(=O)/C=C/c2ccc(O)cc2)c1 [compound 22, methyl [3,4-bis O-(4-hydroxyphenylacryloyl)]phenylacrylate]	3.982 ± 0.301	65.6 ± 1.33
C/C=C/c1ccc(OC(=O)/C=C/c2ccc(O)cc2)c(OC)c1 [compound 23, 2-methoxy-4-[(1E)-prop-1-en-1-yl]phenyl (2E)-3-(4-hydroxyphenyl)acrylate]	8.338 ± 0.204	51.2 ± 1.55
COC(=O)/C=C/c1cc(OC)c2c(c1)[C@@H](C(=O)OC)[C@H](c1ccc(OC(=O)/C=C/c3ccc(O)cc3)c(OC)c1)O2 [compound 24]	8.582 ± 0.214	50.3 ± 1.28
